The record followed here is patent US20060228297A1, “Thorium-227 for use in radiotherapy of soft tissue disease” (priority 2003, published 2006).

For this data set, the system named is patients with breast or prostate cancer. The data set is described as follows: Phase I study of ^223Ra, single doses, neutrophil cell fractions (Example 8). The class given is in vivo, humans. Particulars: for Days to nadir (neutrophil cell fraction) / ˜% of baseline at nadir (neutrophil cell fraction): humans. From the text: In a phase I study in patients with breast or prostate cancer, dose levels of 37, 74, 130, 170 and 200 kBq/kg of ^223Ra were given as single doses. Neutrophil cell fractions were monitored as a sensitive measure of haematological toxicity.

Turning to `[223Ra]` [^223Ra, radium-223], the “Dose that can be administered and tolerated” value (human subjects) is on record as “at least 200 kBq/kg”. The “Days to nadir (neutrophil cell fraction)” value (37 kBq/kg single dose) amounted to 14 days; the “Days to nadir (neutrophil cell fraction)” value (74 kBq/kg single dose) amounted to 14 days; the “Days to nadir (neutrophil cell fraction)” value (130 kBq/kg single dose) was determined as 28 days; the “Days to nadir (neutrophil cell fraction)” value (170 kBq/kg single dose) was determined as 21 days; the “Days to nadir (neutrophil cell fraction)” value (200 kBq/kg single dose) worked out at 21 days. Moreover, the “˜% of baseline at nadir (neutrophil cell fraction)” value (37 kBq/kg single dose) is on record as around 60%; the “˜% of baseline at nadir (neutrophil cell fraction)” value (74 kBq/kg single dose) was around 60%; the “˜% of baseline at nadir (neutrophil cell fraction)” value (130 kBq/kg single dose) is around 50%; the “˜% of baseline at nadir (neutrophil cell fraction)” value (170 kBq/kg single dose) is on record as around 40%; the “˜% of baseline at nadir (neutrophil cell fraction)” value (200 kBq/kg single dose) is around 30%.
